Test results published in US20230150974A1 (Foghorn Therapeutics Inc., priority 2020, published 2023).

Key:
HiBiT-BRM = target: T1, HiBiT-BRM (Homo sapiens, UniProt P51531); test: HiBiT-BRM cell-based degradation assay (Nano-Glo HiBiT Lytic Detection); details: HeLa cells expressing HiBiT-BRM, 24 h; for DC50: read-out: BRM HiBit Degradation IC50
T1 construct: expressed in transfected cells
Method in brief: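 Luminescence from HiBiT–LgBiT complementation in lysates of a stable HiBiT-BRM HeLa line measured after 24 h compound exposure. Degradation expressed as percent relative to DMSO-treated cells and cells given 2 μM of a known BRM/BRG1 degrader.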

HiBit-BRG1 = target: T2, HiBit-BRG1 (Homo sapiens, UniProt P51532); test: HiBit-BRG1 cell-based degradation assay (Nano-Glo HiBiT Lytic Detection); details: HeLa cells expressing HiBit-BRG1 and LgBit, 24 h; for DC50: read-out: BRG1 HiBit Degradation IC50; for Dmax: read-out: BRG1 HiBit Degradation Maximum (%)
T2 construct: expressed in transfected cells
T2 sequence (P51532 whole entry): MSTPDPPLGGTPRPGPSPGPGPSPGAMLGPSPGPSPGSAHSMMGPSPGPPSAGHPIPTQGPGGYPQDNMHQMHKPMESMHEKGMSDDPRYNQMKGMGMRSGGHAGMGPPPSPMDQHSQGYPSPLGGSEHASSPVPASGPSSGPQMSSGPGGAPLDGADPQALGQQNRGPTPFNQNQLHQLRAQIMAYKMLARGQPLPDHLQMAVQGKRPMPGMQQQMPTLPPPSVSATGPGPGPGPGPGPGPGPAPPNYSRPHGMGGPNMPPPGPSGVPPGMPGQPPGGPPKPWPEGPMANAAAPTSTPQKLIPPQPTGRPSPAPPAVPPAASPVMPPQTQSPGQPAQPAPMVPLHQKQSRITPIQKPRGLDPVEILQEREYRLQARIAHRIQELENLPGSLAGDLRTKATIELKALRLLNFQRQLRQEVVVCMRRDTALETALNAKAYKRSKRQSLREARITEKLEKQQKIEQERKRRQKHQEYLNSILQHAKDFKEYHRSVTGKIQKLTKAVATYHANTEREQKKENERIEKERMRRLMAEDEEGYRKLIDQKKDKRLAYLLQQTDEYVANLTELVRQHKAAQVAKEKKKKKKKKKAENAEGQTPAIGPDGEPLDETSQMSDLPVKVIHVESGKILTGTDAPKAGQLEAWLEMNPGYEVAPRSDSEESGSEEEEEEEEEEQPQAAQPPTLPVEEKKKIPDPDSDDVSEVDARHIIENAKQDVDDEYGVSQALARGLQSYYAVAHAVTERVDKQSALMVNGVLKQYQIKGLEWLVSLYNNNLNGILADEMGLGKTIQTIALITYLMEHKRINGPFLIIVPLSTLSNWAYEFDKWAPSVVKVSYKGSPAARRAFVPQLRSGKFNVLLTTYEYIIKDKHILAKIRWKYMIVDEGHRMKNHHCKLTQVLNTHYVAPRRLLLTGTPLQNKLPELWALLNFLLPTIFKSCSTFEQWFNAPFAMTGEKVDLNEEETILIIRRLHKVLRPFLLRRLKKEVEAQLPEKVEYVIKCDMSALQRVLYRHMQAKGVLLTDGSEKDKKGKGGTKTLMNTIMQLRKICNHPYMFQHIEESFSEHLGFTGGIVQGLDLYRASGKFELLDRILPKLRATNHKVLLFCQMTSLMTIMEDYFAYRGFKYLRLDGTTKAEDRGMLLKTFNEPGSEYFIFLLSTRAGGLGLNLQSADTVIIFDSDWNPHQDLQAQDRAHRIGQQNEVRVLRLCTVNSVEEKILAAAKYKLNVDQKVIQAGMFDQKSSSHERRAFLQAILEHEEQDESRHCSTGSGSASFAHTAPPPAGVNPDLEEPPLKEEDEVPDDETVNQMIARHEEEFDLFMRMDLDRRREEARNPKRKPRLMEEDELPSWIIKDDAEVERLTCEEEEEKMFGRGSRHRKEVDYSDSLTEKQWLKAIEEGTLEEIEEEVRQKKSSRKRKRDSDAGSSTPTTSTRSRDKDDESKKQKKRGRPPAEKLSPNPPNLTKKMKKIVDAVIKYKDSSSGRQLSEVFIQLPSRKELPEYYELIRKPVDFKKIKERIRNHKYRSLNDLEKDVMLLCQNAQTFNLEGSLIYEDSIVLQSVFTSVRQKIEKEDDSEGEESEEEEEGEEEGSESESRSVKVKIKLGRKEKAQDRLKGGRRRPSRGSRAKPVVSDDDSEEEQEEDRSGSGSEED
Method in brief: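 Percent degradation derived from lytic HiBiT signal, normalized to DMSO-treated cells and to cells given 2 μM of a known BRM/BRG1 degrader. The HeLa line stably expressed HiBit-BRG1 and LgBit; treatment lasted 24 h at 5000 cells per well.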

T1 sequence (P51531 whole entry): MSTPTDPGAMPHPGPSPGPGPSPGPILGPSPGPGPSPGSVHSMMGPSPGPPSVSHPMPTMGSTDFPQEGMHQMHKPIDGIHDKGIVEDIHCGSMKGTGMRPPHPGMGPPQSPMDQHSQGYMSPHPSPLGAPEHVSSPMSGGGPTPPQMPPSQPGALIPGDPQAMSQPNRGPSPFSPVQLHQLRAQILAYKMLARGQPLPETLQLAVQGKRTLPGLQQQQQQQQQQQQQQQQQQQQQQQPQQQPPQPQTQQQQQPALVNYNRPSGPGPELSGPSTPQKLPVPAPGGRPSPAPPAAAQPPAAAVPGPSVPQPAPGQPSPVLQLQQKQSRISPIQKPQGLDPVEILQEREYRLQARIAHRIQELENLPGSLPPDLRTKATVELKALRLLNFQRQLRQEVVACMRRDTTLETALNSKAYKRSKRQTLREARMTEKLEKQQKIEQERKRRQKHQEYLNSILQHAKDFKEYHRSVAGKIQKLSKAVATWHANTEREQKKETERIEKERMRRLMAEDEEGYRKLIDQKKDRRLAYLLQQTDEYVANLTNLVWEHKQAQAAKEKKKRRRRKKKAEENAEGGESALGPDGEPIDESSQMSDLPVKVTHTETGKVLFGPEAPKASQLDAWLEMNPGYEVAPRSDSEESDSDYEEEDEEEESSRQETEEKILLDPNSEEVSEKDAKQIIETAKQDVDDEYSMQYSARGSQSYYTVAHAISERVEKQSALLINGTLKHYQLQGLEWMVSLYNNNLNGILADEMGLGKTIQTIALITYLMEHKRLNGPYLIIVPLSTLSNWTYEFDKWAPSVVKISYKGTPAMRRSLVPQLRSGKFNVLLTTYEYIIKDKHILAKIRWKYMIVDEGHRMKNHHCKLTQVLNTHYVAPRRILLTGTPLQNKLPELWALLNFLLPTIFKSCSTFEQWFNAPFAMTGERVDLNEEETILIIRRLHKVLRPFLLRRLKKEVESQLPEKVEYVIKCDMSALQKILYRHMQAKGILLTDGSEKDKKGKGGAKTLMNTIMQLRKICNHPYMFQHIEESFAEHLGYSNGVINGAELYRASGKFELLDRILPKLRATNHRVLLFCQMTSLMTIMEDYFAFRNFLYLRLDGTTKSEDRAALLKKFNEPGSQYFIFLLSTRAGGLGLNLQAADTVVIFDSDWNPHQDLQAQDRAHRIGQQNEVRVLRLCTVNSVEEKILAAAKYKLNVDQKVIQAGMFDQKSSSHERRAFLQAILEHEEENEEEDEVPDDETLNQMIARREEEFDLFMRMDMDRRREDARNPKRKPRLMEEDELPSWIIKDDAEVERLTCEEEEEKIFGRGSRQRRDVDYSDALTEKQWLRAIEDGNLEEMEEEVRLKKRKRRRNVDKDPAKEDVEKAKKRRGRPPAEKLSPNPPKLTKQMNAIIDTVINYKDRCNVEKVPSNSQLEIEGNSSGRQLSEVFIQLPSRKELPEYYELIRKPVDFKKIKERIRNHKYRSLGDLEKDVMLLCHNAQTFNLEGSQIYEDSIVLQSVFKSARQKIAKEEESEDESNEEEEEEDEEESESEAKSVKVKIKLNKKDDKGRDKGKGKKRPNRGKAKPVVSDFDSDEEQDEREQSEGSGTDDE

SMILES | BRM HiBit Degradation Maximum (%) (HiBiT-BRM) | DC50 (HiBiT-BRM) [µM] | DC50 (HiBit-BRG1) [µM] | Dmax (HiBit-BRG1) [%]
Cc1ncsc1-c1ccc(CNC(=O)[C@@H]2C[C@@H](O)CN2C(=O)[C@@H](NC(=O)CCCCCCCCCCC(=O)NCc2ccc(CCOc3cc(-c4ccccc4O)nnc3N)cc2)C(C)(C)C)cc1 [Compound 37] | B (“B” indicates maximum degradation ≥50%) | > 0.1 | > 1 | < 50
Cc1ncsc1-c1ccc(CNC(=O)[C@@H]2C[C@@H](O)CN2C(=O)[C@@H](NC(=O)COCCOCCOCC(=O)NCc2ccc(CCOc3cc(-c4ccccc4O)nnc3N)cc2)C(C)(C)C)cc1 [Compound 38, (2S,4R)-1-[(2S)-2-[2-(2-[2-[([[4-(2-[[3-amino-6-(2-hydroxyphenyl)pyridazin-4-yl]oxy]ethyl)phenyl]methyl]carbamoyl)methoxy]ethoxy]ethoxy)acetamido]-3,3-dimethylbutanoyl]-4-hydroxy-N-[[4-(4-methyl-1,3-thiazol-5-yl)phenyl]methyl]pyrrolidine-2-carboxamide] | B (“B” indicates maximum degradation ≥50%) | > 1 | > 1 | < 50
Cc1ncsc1-c1ccc(CNC(=O)[C@@H]2C[C@@H](O)CN2C(=O)[C@@H](NC(=O)COCCOCCOCCOCC(=O)NCc2ccc(CCOc3cc(-c4ccccc4O)nnc3N)cc2)C(C)(C)C)cc1 [Compound 39] | C (“C” indicates maximum degradation <50%) | > 1 | > 1 | < 50
Cc1ncsc1-c1ccc(CNC(=O)[C@@H]2C[C@@H](O)CN2C(=O)[C@@H](NC(=O)CCCCCCCCCCCCCCC(=O)NCc2ccc(CCOc3cc(-c4ccccc4O)nnc3N)cc2)C(C)(C)C)cc1 [Compound 40, N1-(4-(2-((3-amino-6-(2-hydroxyphenyl)pyridazin-4-yl)oxy)ethyl)benzyl)-N16-((S)-1-((2S,4R)-4-hydroxy-2-((4-(4-methylthiazol-5-yl)benzyl)carbamoyl)pyrrolidin-1-yl)-3,3-dimethyl-1-oxobutan-2-yl)hexadecanediamide] | A (“A” indicates maximum degradation ≥75%) | > 0.1 | > 1 | < 50
Nc1nnc(-c2ccccc2O)cc1OCCc1ccc(C(=O)NCCCCCCCCNC(=O)COc2cccc3c2C(=O)N(C2CCC(=O)NC2=O)C3=O)cc1 (centres unmarked) [Compound 41, N-(8-[[4-(2-[[3-amino-6-(2-hydroxyphenyl)pyridazin-4-yl]oxy]ethyl)phenyl]formamido]octyl)-2-[[2-(2,6-dioxopiperidin-3-yl)-1,3-dioxoisoindol-4-yl]oxy]acetamide] | C (“C” indicates maximum degradation <50%) | > 1 | > 1 | < 50
Nc1nnc(-c2ccccc2O)cc1OCCc1ccc(C(=O)NCCCCNc2ccc3c(c2)C(=O)N(C2CCC(=O)NC2=O)C3=O)cc1 (centres unmarked) [Compound 42, 4-(2-[[3-amino-6-(2-hydroxyphenyl)pyridazin-4-yl]oxy]ethyl)-N-(4-[[2-(2,6-dioxopiperidin-3-yl)-1,3-dioxoisoindol-5-yl]amino]butyl)benzamide] | C (“C” indicates maximum degradation <50%) | > 1 | > 1 | < 50
Nc1nnc(-c2ccccc2O)cc1OCCc1ccc(C(=O)NCCOCCOCCNc2cccc3c2C(=O)N(C2CCC(=O)NC2=O)C3=O)cc1 (centres unmarked) [Compound 43, 4-(2-[[3-amino-6-(2-hydroxyphenyl)pyridazin-4-yl]oxy]ethyl)-N-[2-[2-(2-[[2-(2,6-dioxopiperidin-3-yl)-1,3-dioxoisoindol-4-yl]amino]ethoxy)ethoxy]ethyl]benzamide] | C (“C” indicates maximum degradation <50%) | > 1 | > 1 | < 50
Nc1nnc(-c2ccccc2O)cc1OCCc1ccc(C(=O)NCCCCCCCCNc2cccc3c2C(=O)N(C2CCC(=O)NC2=O)C3=O)cc1 (centres unmarked) [Compound 44, 4-(2-((3-amino-6-(2-hydroxyphenyl)pyridazin-4-yl)oxy)ethyl)-N-(8-((2-(2,6-dioxopiperidin-3-yl)-1,3-dioxoisoindolin-4-yl)amino)octyl)benzamide] | B (“B” indicates maximum degradation ≥50%) | > 0.1 | > 1 | < 50
Cc1nc2cccc(NCCCCCCCCNC(=O)c3ccc(CCOc4cc(-c5ccccc5O)nnc4N)cc3)c2c(=O)n1C1CCC(=O)NC1=O (centres unmarked) [Compound 45, 4-(2-[[3-amino-6-(2-hydroxyphenyl)pyridazin-4-yl]oxy]ethyl)-N-(8-[[3-(2,6-dioxopiperidin-3-yl)-2-methyl-4-oxoquinazolin-5-yl]amino]octyl)benzamide] | C (“C” indicates maximum degradation <50%) | > 1 | > 1 | < 50
Nc1nnc(-c2ccccc2O)cc1OCCc1ccc(C(=O)NCCCCCCNc2ccc3c(c2)C(=O)N(C2CCC(=O)NC2=O)C3=O)cc1 (centres unmarked) [Compound 46, 4-(2-[[3-amino-6-(2-hydroxyphenyl)pyridazin-4-yl]oxy]ethyl)-N-(6-[[2-(2,6-dioxopiperidin-3-yl)-1,3-dioxoisoindol-5-yl]amino]hexyl)benzamide] | C (“C” indicates maximum degradation <50%) | > 1 | > 1 | < 50
Cc1ncsc1-c1ccc(CNC(=O)[C@@H]2C[C@@H](O)CN2C(=O)[C@@H](NC(=O)CCCCCCCCCNC(=O)c2ccc(CCOc3cc(-c4ccccc4O)nnc3N)cc2)C(C)(C)C)cc1 [Compound 47, (2S,4R)-1-[(2S)-2-(10-[[4-(2-[[3-amino-6-(2-hydroxyphenyl)pyridazin-4-yl]oxy]ethyl)phenyl]formamido]decanamido)-3,3-dimethylbutanoyl]-4-hydroxy-N-[[4-(4-methyl-1,3-thiazol-5-yl)phenyl]methyl]pyrrolidine-2-carboxamide] | B (“B” indicates maximum degradation ≥50%) | > 0.1 | > 1 | < 50
Cc1nc2cccc(NCCOCCOCCNC(=O)c3ccc(CCOc4cc(-c5ccccc5O)nnc4N)cc3)c2c(=O)n1C1CCC(=O)NC1=O (centres unmarked) [Compound 48, 4-(2-[[3-amino-6-(2-hydroxyphenyl)pyridazin-4-yl]oxy]ethyl)-N-[2-[2-(2-[[3-(2,6-dioxopiperidin-3-yl)-2-methyl-4-oxoquinazolin-5-yl]amino]ethoxy)ethoxy]ethyl]benzamide] | C (“C” indicates maximum degradation <50%) | > 1 | > 1 | < 50
Nc1nnc(-c2ccccc2O)cc1OCCc1ccc(C(=O)N2CCC(C3CCN(C(=O)COc4cccc5c4C(=O)N(C4CCC(=O)NC4=O)C5=O)CC3)CC2)cc1 (centres unmarked) [Compound 49, 4-(2-(1′-(4-(2-((3-amino-6-(2-hydroxyphenyl)pyridazin-4-yl)oxy)ethyl)benzoyl)-[4,4′-bipiperidin]-1-yl)-2-oxoethoxy)-2-(2,6-dioxopiperidin-3-yl)isoindoline-1,3-dione] | C (“C” indicates maximum degradation <50%) | > 1 | > 1 | < 50
Nc1nnc(-c2ccccc2O)cc1OCCc1ccc(C(=O)NCCCCCNc2cccc3c2C(=O)N(C2CCC(=O)NC2=O)C3=O)cc1 (centres unmarked) [Compound 50, 4-(2-((3-amino-6-(2-hydroxyphenyl)pyridazin-4-yl)oxy)ethyl)-N-(5-((2-(2,6-dioxopiperidin-3-yl)-1,3-dioxoisoindolin-4-yl)amino)pentyl)benzamide] | C (“C” indicates maximum degradation <50%) | > 1 | > 1 | < 50
Nc1nnc(-c2ccccc2O)cc1OCCc1ccc(C(=O)NCCCCCNc2ccc3c(c2)C(=O)N(C2CCC(=O)NC2=O)C3=O)cc1 (centres unmarked) [Compound 51, 4-(2-[[3-amino-6-(2-hydroxyphenyl)pyridazin-4-yl]oxy]ethyl)-N-(5-[[2-(2,6-dioxopiperidin-3-yl)-1,3-dioxoisoindol-5-yl]amino]pentyl)benzamide] | C (“C” indicates maximum degradation <50%) | > 1 | > 1 | < 50
Cc1nc2cccc(NCCCCCCNC(=O)c3ccc(CCOc4cc(-c5ccccc5O)nnc4N)cc3)c2c(=O)n1C1CCC(=O)NC1=O (centres unmarked) [Compound 52, 4-(2-[[3-amino-6-(2-hydroxyphenyl)pyridazin-4-yl]oxy]ethyl)-N-(6-[[3-(2,6-dioxopiperidin-3-yl)-2-methyl-4-oxoquinazolin-5-yl]amino]hexyl)benzamide] | C (“C” indicates maximum degradation <50%) | > 1 | > 1 | < 50
Nc1nnc(-c2ccccc2O)cc1OCCc1ccc(C(=O)NCCOCCOCCNc2cccc3c2CN(C2CCC(=O)NC2=O)C3=O)cc1 (centres unmarked) [Compound 54, 4-(2-[[3-amino-6-(2-hydroxyphenyl)pyridazin-4-yl]oxy]ethyl)-N-[2-[2-(2-[[2-(2,6-dioxopiperidin-3-yl)-1-oxo-3H-isoindol-4-yl]amino]ethoxy)ethoxy]ethyl]benzamide] | C (“C” indicates maximum degradation <50%) | > 1 | > 1 | < 50
